Common to all, as to assay type: cell-based
Experiment [1] relates to Helicobacter pylori NCTC 11637. Briefly: In vitro synergistic effect of ST 722 and Bismuth Subcitrate. On the procedure:
CBS from the commercially available product De-Nol® (Gist-Brocades, Netherland), i.e. ammonium and potassium double salt of colloidal bismuth citrate hydroxide, was utilized by preparing a suspension of 10 mg/ml CBS in 1N NaOH. After diluting 1:10 in Mueller-Hinton broth, 8 serial two-fold dlitutions in the same medium were made. The compound ST 722 was dissolved in Mueller-Hinton broth at a starting concentration of 100 mcg/ml, then 7 serial two-fold dilutions were carried out.
The "in vitro" anti-Helicobacter activity of both CBS and ST 722, alone and in association, was tested by utilizing the strain H. pylori NCTC 11637.
A 24-hour culture of Helicobacter in Columbia agar medium supplemented with Vitox (Oxoid) and 7% defribinated horse blood is washed with Mueller-Hinton broth.
Following densitometric evaluation (reading at 600 nm), the bacterial suspension was adjusted to a concentration of 1.0×10^9 cells/ml and 0.2-ml volumes were distributed into each well of a 96-well U-bottomed microtiter plate.
A 1-μl volume of this bacterial suspension was then distributed, by means of a Steers-type replicator apparatus, into the wells of microtiter plates containing the substances, either alone or in association. The final bacterial inoculum contained approximately 1.0×10^6 bacterial cells.
The procedure described by Garrod et al. (GARROD, L. P. and WATERWORTH, P. M., 1962. Methods of testing combined antibiotic bactericidal action and the significance of the results. J. Clin. Pathol. 15, 328-338) was utilized.
Briefly, 250-μl volumes of each test substance, either alone or admixed in all the possible combinations, were additioned to 4.5 ml of Mueller-Hinton agar containing 5% defribinated horse serum. Volumes of 0.2 ml/well of the resulting solution were distributed into the wells of a microtiter plate, then seeded with 1 μl/well of a standardized bacterial suspension, and finally incubated for 48 hours at 37° C. in a 10% CO2 atmosphere.
In order to evaluate the results obtained with combinations of antibiotics it was utilized the method (KROGSTAD, D. J. and MOELLERING, R. C., 1983. Antimicrobial combinations. In LORIAN, V., Antibiotics in Laboratory Medicine, 15, 537-549) based on the calculation of the Fractional Inhibitory Concentration Index (FIC index).
FIC index is calculated as follows: [formula] Where (A) is the MIC of substance A in the association and (MICA) is the […] of the organism to substance A alone. FICA is the fractional inhibitory concentration of substance A. (B), (MICB) and FICB are defined in the same fashion for substance B.
Based on these criteria, the effect of a combination of 2 substances is referred to as 'synergistic" when the FIC index is ≤0.5, "additive" with a FIC index=1, and "antagonist" when FIC index is >1.

In experiment [2] the test system is Salmonella typhimurium (D.S.). Description: MIC in broth, Gram- strains. Particulars: Salmonella enterica, 18 h, read-out: Minimal Inhibitory Concentration (MIC). On the procedure: (§1) MICs were determined by a standard microdilution test, using serial two-fold dilutions of the substances in Mueller-Hinton broth.
(§2) The inoculum was prepared from an overnight culture in Mueller-Hinton broth matching the 0.5 Mc Farland (turbidity) standard (BRAY W. E., Clinical Laboratory Methods, 5th Ed. C. V. MOSBY, St. Louis, Mo. 1957), and was adjusted to a final concentration of 5.0×10^4 colony-forming units/ml.
(§3) Equal volumes (0.1 ml) of both bacterial suspensions and substance solutions were distributed in microtiter plates (Falcon, 96 wells, round bottom), and then placed in a humidified incubator (37° C.) for 18 hours.
(§4) Evaluation of the Minimal Inhibitory Concentration (MIC) in broth of 16 new substances for Gram- bacterial strains.
(§5) The following strains were used: Enterobacter (1), Escherichia (3), Klebsiella (3), Proteus (3); Pseudomonas (2); Salmonella (2), Serratia (1).

Experiment [3] concerns Klebsiella aerogenes (SH 1082). Description: MIC in broth, Gram- strains. As to conditions: 18 h, read-out: Minimal Inhibitory Concentration (MIC). On the procedure:
as §1, §2, §3, §4, §5

The subject of experiment [4] is Pseudomonas aeruginosa (10 E). Description: MIC in broth, Gram- strains. As to conditions: 18 h, read-out: Minimal Inhibitory Concentration (MIC). As for the experimental part:
as §1, §2, §3, §4, §5

In a further experiment the test system is Escherichia coli (92 F). Description: MIC in broth, Gram- strains. Particulars: 18 h, E. coli (92 F), read-out: Minimal Inhibitory Concentration (MIC). On the procedure: as §1, §2, §3, §4, §5
The next experiment concerns Proteus mirabilis (32). Description: MIC in broth, Gram- strains. As to conditions: 18 h, read-out: Minimal Inhibitory Concentration (MIC). As for the experimental part: as §1, §2, §3, §4, §5
The test system of another experiment is Proteus vulgaris (UM). Description: MIC in broth, Gram- strains. As to conditions: 18 h, read-out: Minimal Inhibitory Concentration (MIC). On the procedure:
as §1, §2, §3, §4, §5

Another experiment deals with Proteus morganii (D.S.). Briefly: MIC in broth, Gram- strains. As to conditions: Morganella morganii, 18 h, read-out: Minimal Inhibitory Concentration (MIC). As for the experimental part: as §1, §2, §3, §4, §5
The test system of experiment [5] is Pseudomonas aeruginosa (3 E). Briefly: MIC in broth, Gram- strains. Particulars: 18 h, read-out: Minimal Inhibitory Concentration (MIC). On the procedure:
as §1, §2, §3, §4, §5

The next experiment deals with Klebsiella oxytoca (552). Description: MIC in broth, Gram- strains. Particulars: 18 h, read-out: Minimal Inhibitory Concentration (MIC). As for the experimental part:
as §1, §2, §3, §4, §5

A further experiment has as its system Escherichia coli (R 57B). Description: MIC in broth, Gram- strains. Particulars: 18 h, E. coli (R 57B), read-out: Minimal Inhibitory Concentration (MIC). On the procedure: as §1, §2, §3, §4, §5
A further experiment deals with Salmonella typhi (J). Briefly: MIC in broth, Gram- strains. Particulars: Salmonella enterica, 18 h, read-out: Minimal Inhibitory Concentration (MIC). As for the experimental part: as §1, §2, §3, §4, §5
The test system of experiment [6] is Klebsiella pneumoniae (7823). Briefly: MIC in broth, Gram- strains. As to conditions: 18 h, read-out: Minimal Inhibitory Concentration (MIC). On the procedure: as §1, §2, §3, §4, §5
In another experiment the test system is Gram+ bacterial strains. Briefly: Mean MIC in broth and resistant strain number, Gram+ strains. Particulars: 18 h, versus susceptible strains. On the procedure:
(§6) Evaluation of the Minimal Inhibitory Concentration (MIC) in broth of 15 new substances for Gram+ bacterial strains.
(§7) The following strains were used: Staphylococcus aureus (4); Streptococcus faecalis (8); Bacillus pumilus (1); Bacillus subtilis (1).
as §1, §2, §3
(§8) The results, in terms of MIC values, resistant strain number and mean MIC values versus susceptible strains, are illustrated in Tables 1-6.

Experiment [7] has as its system Bacillus pumilus (CN 607). Briefly: MIC in broth, Gram+ strains. Particulars: B. pumilus (CN 607), Mueller-Hinton broth, 37° C., 18 hours, read-out: Minimal Inhibitory Concentration (MIC). On the procedure:
as §6, §7, §1, §2, §3, §8

Experiment [8] has as its system Staphylococcus aureus (303). Briefly: MIC in broth, Gram+ strains. As to conditions: S. aureus (303), Mueller-Hinton broth, 37° C., 18 hours, read-out: Minimal Inhibitory Concentration (MIC). As for the experimental part:
as §6, §7, §1, §2, §3, §8

In experiment [9] the test system is Staphylococcus aureus (ATCC 14154). Briefly: MIC in broth, Gram+ strains. Particulars: ATCC14154, S. aureus (ATCC 14154), Mueller-Hinton broth, 37° C., 18 hours, read-out: Minimal Inhibitory Concentration (MIC). As for the experimental part: as §6, §7, §1, §2, §3, §8
Experiment [10] has as its system Streptococcus faecalis (UM). Description: MIC in broth, Gram+ strains. Particulars: Enterococcus faecalis; S. faecalis (UM), Mueller-Hinton broth, 37° C., 18 hours; read-out: Minimal Inhibitory Concentration (MIC). On the procedure:
as §6, §7, §1, §2, §3, §8

Experiment [11] deals with Streptococcus faecalis (516). Description: MIC in broth, Gram+ strains. Particulars: Enterococcus faecalis; S. faecalis (516), Mueller-Hinton broth, 37° C., 18 hours; read-out: Minimal Inhibitory Concentration (MIC). On the procedure:
as §6, §7, §1, §2, §3, §8

Experiment [12] deals with Streptococcus faecalis (505). Description: MIC in broth, Gram+ strains. As to conditions: Enterococcus faecalis; S. faecalis (505), Mueller-Hinton broth, 37° C., 18 hours; read-out: Minimal Inhibitory Concentration (MIC). On the procedure: as §6, §7, §1, §2, §3, §8
For experiment [13], the system named is Staphylococcus aureus (306 MR). Description: MIC in broth, Gram+ strains. Particulars: S. aureus (306 MR), Mueller-Hinton broth, 37° C., 18 hours, read-out: Minimal Inhibitory Concentration (MIC). On the procedure: as §6, §7, §1, §2, §3, §8
Experiment [14] concerns Streptococcus faecalis (519). Description: MIC in broth, Gram+ strains. Particulars: Enterococcus faecalis; S. faecalis (519), Mueller-Hinton broth, 37° C., 18 hours; read-out: Minimal Inhibitory Concentration (MIC). As for the experimental part:
as §6, §7, §1, §2, §3, §8

For experiment [15], the system named is Streptococcus faecalis (518). Description: MIC in broth, Gram+ strains. As to conditions: Enterococcus faecalis; S. faecalis (518), Mueller-Hinton broth, 37° C., 18 hours; read-out: Minimal Inhibitory Concentration (MIC). On the procedure: as §6, §7, §1, §2, §3, §8
In experiment [16] the test system is Streptococcus faecalis (501). Briefly: MIC in broth, Gram+ strains. As to conditions: Enterococcus faecalis; S. faecalis (501), Mueller-Hinton broth, 37° C., 18 hours; read-out: Minimal Inhibitory Concentration (MIC). On the procedure: as §6, §7, §1, §2, §3, §8
The test system of experiment [17] is Streptococcus faecalis (509). Briefly: MIC in broth, Gram+ strains. Particulars: Enterococcus faecalis; S. faecalis (509), Mueller-Hinton broth, 37° C., 18 hours; read-out: Minimal Inhibitory Concentration (MIC). As for the experimental part:
as §6, §7, §1, §2, §3, §8

The test system of experiment [18] is Staphylococcus aureus (LC1). Description: MIC in broth, Gram+ strains. As to conditions: S. aureus (LC1), Mueller-Hinton broth, 37° C., 18 hours, read-out: Minimal Inhibitory Concentration (MIC). On the procedure:
as §6, §7, §1, §2, §3, §8

In experiment [19] the test system is Streptococcus faecalis (R 2). Description: MIC in broth, Gram+ strains. As to conditions: Enterococcus faecalis; S. faecalis (R 2), Mueller-Hinton broth, 37° C., 18 hours; read-out: Minimal Inhibitory Concentration (MIC). On the procedure: as §6, §7, §1, §2, §3, §8
Experiment [20] relates to Bacillus subtilis (ATCC 6051). Description: MIC in broth, Gram+ strains. Particulars: ATCC6051, B. subtilis (ATCC 6051), Mueller-Hinton broth, 37° C., 18 hours, read-out: Minimal Inhibitory Concentration (MIC). As for the experimental part: as §6, §7, §1, §2, §3, §8
The test system of the next experiment is Gram- bacterial strains. Briefly: Mean MIC in broth and resistant strain number, Gram- strains. Particulars: 18 h, read-out: Mean MIC values. On the procedure: as §1, §2, §3, §4, §5

Take “Colloidal Bismuth Subcitrate [CBS, reference compound]”: the “FIC (fractional inhibitory concentration)” value in experiment [1] (ST 722 with CBS) was found to be 0.50. Besides, the MIC in [1] (substance alone, H. pylori NCTC 11637, 48 hours) came out at 6.25 µg/mL.

Take `CCCCCCCCCCCOC(=O)CC(C[N+](C)(C)C)OC(=O)CCCCCC` (stereo not drawn) [ST 1036]: the MIC in [2] was > 100 µg/mL; in experiment [3] it was 100 µg/mL; in experiment [4] it was > 100 µg/mL; in the experiment on Escherichia coli (92 F), 25 µg/mL; with Proteus mirabilis (32) it was > 100 µg/mL; in the experiment on Proteus vulgaris (UM), > 100 µg/mL. The MIC is > 100 µg/mL in the experiment on Proteus morganii (D.S.); 100 µg/mL in [5]; 50 µg/mL in the experiment with Klebsiella oxytoca (552); > 100 µg/mL in the experiment on Escherichia coli (R 57B); 25 µg/mL in the experiment with Salmonella typhi (J); 12.5 µg/mL in experiment [6]. The MIC came out at 2.45 µg/mL in the experiment with Gram+ bacterial strains; 1.56 µg/mL in experiment [7]; 3.12 µg/mL in experiment [8]; 3.12 µg/mL in experiment [9]; 1.56 µg/mL in experiment [10]; 3.12 µg/mL in experiment [11]. In addition, the MIC in [12] was 1.56 µg/mL; in experiment [13], 3.12 µg/mL; in experiment [14], 3.12 µg/mL; in experiment [15], 3.12 µg/mL; in experiment [16], 1.56 µg/mL; in experiment [17] it was 1.56 µg/mL. In addition, the MIC in experiment [18] was 1.56 µg/mL; in experiment [19] it was 3.12 µg/mL; in experiment [20], 3.12 µg/mL; in the experiment on Gram- bacterial strains, 60.7 µg/mL.

For the origin of these results see patent US5498632A, “Esters of acyl carnitines with long-chain aliphatic alcohols and pharmaceutical compositions containing same having antibacterial activity” (Sigma-Tau Industrie Farmaceutiche Riunite S.p.A., priority 1992, dated 1996).
